Test results as given in patent US20210353595A1, “USE OF MELATONIN IN PREPARATION OF MEDICAMENT FOR INHIBITING AND/OR KILLING BACTERIUM” (priority 2020, published 2021).
Values after ≈ are worked out from the molar mass of the structure shown. “Also recorded” adds a separate entry of the source.

Experiments:
Format in all cases: cell-based
Acinetobacter baumannii = experiment: MIC/MBC bacteriostatic and bactericidal test
Method: (§1) 1 mL of a fresh suspension of bacteria (1×10^9 CFU) at the logarithmic growth stage was added into 100 mL containing different concentrations (50 mg/mL, 25 mg/mL, 12.5 mg/mL, 6.25 mg/mL, 3.125 mg/mL, 1.5625 mg/mL, 0.78125 mg/mL, 0.390625 mg/mL) of melatonin. A melatonin (MT)-free solution diluted with DMSO was used as a control group. The samples were shaken at 37° C. and a rotation speed of 120 r/min with protection from light for 12 hours, and then subjected to detection of the minimal inhibitory concentration (MIC) of MT on bacteria. Then, 0.1 mL of the aforementioned transparent bacterial solution was pipetted onto a sterilized agar plate of a specific culture medium and coated evenly, incubated in an incubator at 37° C. for 24 hours, and then subjected to detection of the minimum bactericidal concentration (MBC) of MT on pathogens, wherein the minimum concentration of MT at which no bacterium grew was the MBC of MT on pathogens. Each experiment was carried out for 3 times, and each group was set in triplicate.

[1] = system: Avianpathogenic Escherichia coli; experiment: MIC/MBC bacteriostatic and bactericidal test; conditions: 12 h
Method: as §1

Bacillus cereus = experiment: MIC/MBC bacteriostatic and bactericidal test
Method: as §1

[2] = system: Bovine meningitic Escherichia coli; experiment: MIC/MBC bacteriostatic and bactericidal test
Method: as §1

Enterobacter sakazakii = experiment: MIC/MBC bacteriostatic and bactericidal test; conditions: Cronobacter sakazakii
Method: as §1

[3] = system: Escherichia coli C83902 (ATCC72864); experiment: MIC/MBC bacteriostatic and bactericidal test
Method: as §1

Klebsiella pneumoniae = experiment: MIC/MBC bacteriostatic and bactericidal test
Method: as §1

Lactobacillus johnsonii = experiment: MIC/MBC bacteriostatic and bactericidal test
Method: as §1

[4] = system: Listeria monocytogenes (ATCC53005); experiment: MIC/MBC bacteriostatic and bactericidal test
Method: as §1

Mannheimia haemolytica = experiment: MIC/MBC bacteriostatic and bactericidal test
Method: as §1

Pasteurella multocida = experiment: MIC/MBC bacteriostatic and bactericidal test
Method: as §1

Pneumococcus = experiment: MIC/MBC bacteriostatic and bactericidal test
Method: as §1

Pseudomonas aeruginosa = experiment: MIC/MBC bacteriostatic and bactericidal test
Method: as §1

[5] = system: Salmonella enteritidis (ATCC85090); experiment: MIC/MBC bacteriostatic and bactericidal test; conditions: Salmonella enterica
Method: as §1

[6] = system: Staphylococcus aureus (ATCC25923); experiment: MIC/MBC bacteriostatic and bactericidal test
Method: as §1

Streptococcus pneumoniae = experiment: MIC/MBC bacteriostatic and bactericidal test
Method: as §1

[7] = system: citrate synthase of Pasteurella multocida; experiment: Citrate synthase activity of bacteria after treatment; conditions: MT 1, 2, 3 mg/mL, 12 h; FIG. 15
Method: Based on the discovery of metabolomics, the enzyme activity of citrate synthase after melatonin treatment was studied. 1 mL of Pasteurella multocida (1×10^9 CFU) at the logarithmic growth stage was added into 100 mL of fresh and sterile Martin broth medium containing different concentrations (1 mg/mL, 2 mg/mL, and 3 mg/mL) of MT. Melatonin-free DMSO was used as a solvent control group, and the bacterial cells were cultured in a constant-temperature shaker at 37° C. and 220 rpm for 12 h. Thereafter, 1 mL of the bacterial solution was centrifuged at 3000 r/min for 10 minutes, and the supernatant and precipitated cells were collected, respectively. The citrate synthase activity was determined using a determination kit according to the protocol of the instructions. Each experiment was repeated for three times, and each group was set in triplicate. Further, 1 mL of Pasteurella multocida (1×10^9 CFU) at the logarithmic growth stage was added into 100 mL of fresh and sterile Martin broth medium containing different concentrations of melatonin and citric acid (MT-1 mg/mL, MT-2 mg/mL, MT-3 mg/mL, CA-1 mg/mL, CA-2 mg/mL, CA-3 mg/mL, MT-1 mg/mL-CA-1 mg/mL, MT-2 mg/mL-CA-2 mg/mL, MT-3 mg/mL-CA-3 mg/mL). […] The citrate synthase activity was determined using a determination kit according to the protocol of the instructions. […]

[8] = target: T1, citrate synthase in lung epithelial cells (Mus musculus, UniProt Q9CZU6); experiment: Citrate synthase enzyme activity in lung epithelial cells; conditions: melatonin up to 40 mg/mL; 1MOI Pasteurella multocida, 12 h; FIG. 26
T1 construct: lysed by ultrasound at a low temperature, and then the enzyme activity of citrate synthase was analyzed; endogenous in cells; host or cells: mouse lung epithelial cells
T1 sequence (Q9CZU6 28-464): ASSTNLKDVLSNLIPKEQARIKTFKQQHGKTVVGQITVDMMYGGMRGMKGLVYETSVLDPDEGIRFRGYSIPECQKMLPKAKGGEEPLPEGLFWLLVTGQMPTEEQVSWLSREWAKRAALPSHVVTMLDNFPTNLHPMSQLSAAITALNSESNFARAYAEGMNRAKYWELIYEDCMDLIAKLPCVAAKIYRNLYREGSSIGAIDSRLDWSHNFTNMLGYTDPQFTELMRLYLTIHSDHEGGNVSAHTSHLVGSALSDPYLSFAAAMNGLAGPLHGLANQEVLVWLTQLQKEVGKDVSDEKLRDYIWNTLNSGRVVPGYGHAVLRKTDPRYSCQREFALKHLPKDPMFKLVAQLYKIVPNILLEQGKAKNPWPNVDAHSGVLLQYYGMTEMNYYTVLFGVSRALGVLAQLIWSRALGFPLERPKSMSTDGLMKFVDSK
Method: 2×10^5 mouse lung epithelial cells per well were inoculated into a 48-well microplate, and cultured in a 5% CO2 incubator at 37° C. until full confluence of the cells. The non-adherent cells were washed away with 1×PBS, and the cells were treated with melatonin with the final concentrations of 1, 2, 3, 10, 20 and 40 mg/ml, while the control group was treated with the same volume of DMSO. After melatonin treatment for 30 min, 1MOI Pasteurella multocida was added into the culture medium for continue culture. After 12 h, the bacterial cells were collected, lysed by ultrasound at a low temperature, and then the enzyme activity of citrate synthase was analyzed. For specific test steps, please refer to the kit for detecting the enzyme activity of the citrate synthase. Each experiment was repeated three times, and each group was set in hexaplicate.

For `COc1ccc2[nH]cc(CCNC(C)=O)c2c1` [melatonin, N-acetyl-5-methoxytryptamine], the MIC (Acinetobacter baumannii; 37° C., 12 hours) was 12.5 mg/mL (≈ 53.8 mM), the MBC (Acinetobacter baumannii; agar plate 37° C., 24 hours) was 12.5 mg/mL (≈ 53.8 mM) and the MIC [1] was 6.25 mg/mL (≈ 26.9 mM). It also gave an MIC (Bacillus cereus; 37° C., 12 hours) of 6.25 mg/mL (≈ 26.9 mM), an MBC (Bacillus cereus; agar plate 37° C., 24 hours) of 12.5 mg/mL (≈ 53.8 mM) and an MIC ([2]; 37° C., 12 hours) of 12.5 mg/mL (≈ 53.8 mM). It also gave an MBC ([2]; agar plate 37° C., 24 hours) of 12.5 mg/mL (≈ 53.8 mM), an MIC (Enterobacter sakazakii; 37° C., 12 hours) of 6.25 mg/mL (≈ 26.9 mM) and an MBC (Enterobacter sakazakii; agar plate 37° C., 24 hours) of 25 mg/mL (≈ 108 mM). It also gave an MIC ([3]; 37° C., 12 hours) of 12.5 mg/mL (≈ 53.8 mM), an MBC ([3]; agar plate 37° C., 24 hours) of 25 mg/mL (≈ 108 mM) and an MIC (Klebsiella pneumoniae; 37° C., 12 hours) of 3.12 mg/mL (≈ 13.5 mM). It also gave an MBC (Klebsiella pneumoniae; agar plate 37° C., 24 hours) of 6.25 mg/mL (≈ 26.9 mM), an MIC (Lactobacillus johnsonii; 37° C., 12 hours) of 25 mg/mL (≈ 108 mM) and an MBC (Lactobacillus johnsonii; agar plate 37° C., 24 hours) of 50 mg/mL (≈ 215 mM). For the same molecule, the MIC ([4]; 37° C., 12 hours) was 12.5 mg/mL (≈ 53.8 mM), the MBC ([4]; agar plate 37° C., 24 hours) was 50 mg/mL (≈ 215 mM) and the MIC (Mannheimia haemolytica; 37° C., 12 hours) was 12.5 mg/mL (≈ 53.8 mM). For the same molecule, the MBC (Mannheimia haemolytica; agar plate 37° C., 24 hours) was 25 mg/mL (≈ 108 mM), the MIC (Pasteurella multocida; 37° C., 12 hours) was 1.56 mg/mL (≈ 6.73 mM) and the MBC (Pasteurella multocida; agar plate 37° C., 24 hours, no bacterium grew) was 3.12 mg/mL (≈ 13.5 mM). The MIC (Pneumococcus; 37° C., 12 hours) was 12.5 mg/mL (≈ 53.8 mM), the MBC (Pneumococcus; agar plate 37° C., 24 hours) was 25 mg/mL (≈ 108 mM) and the MIC (Pseudomonas aeruginosa; 37° C., 12 hours) was 12.5 mg/mL (≈ 53.8 mM). The MBC (Pseudomonas aeruginosa; agar plate 37° C., 24 hours) was 12.5 mg/mL (≈ 53.8 mM), the MIC ([5]; 37° C., 12 hours) was 12.5 mg/mL (≈ 53.8 mM) and the MBC ([5]; agar plate 37° C., 24 hours) was 12.5 mg/mL (≈ 53.8 mM). It also gave an MIC ([6]; 37° C., 12 hours) of 50 mg/mL (≈ 215 mM), an MBC ([6]; agar plate 37° C., 24 hours) of 50 mg/mL (≈ 215 mM) and an MIC (Streptococcus pneumoniae; 37° C., 12 hours) of 12.5 mg/mL (≈ 53.8 mM). For the same molecule, the MBC (Streptococcus pneumoniae; agar plate 37° C., 24 hours) was 25 mg/mL (≈ 108 mM), the “activity of citrate synthase in the bacteria and the culture medium” value [7] was “significantly reduced; also recorded: significantly inhibiting” and the “enzyme activity of citrate synthase in lung epithelial cells” value [8] was “did not affect”.
